“Also recorded” adds a separate entry of the source.
System: cancer cells
Experiment: List of active compounds: types of cancers and precancers active against
Format: cell-based
Source text: As discussed, the adamantyl retinoid derivatives according to the invention which induce apoptosis are useful for treating many different types of cancers.

Row | SMILES | Types of Cancers and Precancers Active Against
1 | CC(=O)OCc1ccc(-c2ccc3cc(C(=O)O)ccc3c2)cc1C12CC3CC(CC(C3)C1)C2 [Compound 5, 6-[3-(1-adamantyl)-4-acetoxymethylphenyl]-2-naphthoic acid] | head and neck, leukemia, lung,; also recorded: lymphoma, myeloma, pancre-; also recorded: atic, skin
2 | COc1ccc(-c2ccc3cc(C(=O)N4CCNCC4)ccc3c2)cc1C12CC3CC(CC(C3)C1)C2 [Compound 7, N-{6-[3-(1-adamantyl)-4-methoxyphenyl]-2-naphthalenecarboxoyl}piperizide] | brain, breast, head and neck,; also recorded: myeloma, prostate, skin
3 | COc1ccc(C(=O)C#Cc2ccc(C(=O)O)cc2)cc1C12CC3CC(CC(C3)C1)C2 [Compound 8, 4-{3-oxo-3-[3-(1-adamantyl)-4-methoxyphenyl]-1-propynyl}benzoic acid] | brain, breast, leukemia, lung,; also recorded: lymphoma, skin, liver
4 | COc1cc(NC(=O)c2ccc(OC)c(C34CC5CC(CC(C5)C3)C4)c2)ccc1C(=O)O [Compound 9, 4-[N-(3-(1-adamantyl)-4-methoxybenzoyl)amido]2-methoxybenzoic acid] | head and neck, kidney, ovarian, and skin
5 | COc1ccc(-c2nc3ccc(C)cc3[nH]2)cc1C12CC3CC(CC(C3)C1)C2 [Compound 10, 2-[3-(1-adamantyl)-4-methoxyphenyl]-5-methylbenzimidazole] | leukemia, lymphoma, myeloma
6 | O=C(O)c1ccc2cc(-c3ccc(C(O)CO)c(C45CC6CC(CC(C6)C4)C5)c3)ccc2c1 (centres unmarked) [Compound 11, 6-[3-(1-adamantyl)-4-(1,2-dihydroxyethyl)phenyl]-2-naphthoic acid] | brain, breast, leukemia,; also recorded: pancreatic, skin
7 | Cc1cc(O)c(C23CC4CC(CC(C4)C2)C3)cc1-c1ccc2cc(C(=O)O)ccc2c1 [Compound 12, 6-[3-(1-adamantyl)-4-hydroxy-6-methylphenyl]-2-naphthoic acid] | head and neck, leukemia,; also recorded: pancreatic
8 | COc1cc(C)c(-c2ccc3cc(C(=O)O)ccc3c2)cc1C12CC3CC(CC(C3)C1)C2 [Compound 13, 6-[3-(1-adamantyl)-4-methoxy-6-methylphenyl]-2-naphthoic acid] | brain, head and neck, leukemia,; also recorded: pancreatic
9 | OCc1ccc2cc(-c3ccc(O)c(C45CC6CC(CC(C6)C4)C5)c3)ccc2c1 [Compound 14, 6-[3-(1-adamantyl)-4-hydroxyphenyl]-2-hydroxymethylnaphthalene] | bladder, kidney, skin
10 | COc1ccc(COc2ccc(C(=O)O)cc2)cc1C12CC3CC(CC(C3)C1)C2 [Compound 15, 4-[3-(1-adamantyl)-4-methoxybenzyloxy]benzoic acid] | breast, leukemia, prostate
11 | COc1ccc(-c2cc3cc(C(=O)O)ccc3o2)cc1C12CC3CC(CC(C3)C1)C2 [Compound 16, 2-[3-(1-adamantyl)-4-methoxyphenyl]-5-benzofurancarboxylic acid] | brain, breast, prostate
12 | COC(=O)c1ccc2cc(-c3ccc(O)c(C45CC6CC(CC(C6)C4)C5)c3)ccc2c1 [Compound 17, 6-[3-(1-adamantyl)-4-hydroxyphenyl]-2-naphthoic acid methyl ester] | leukemia
13 | COC(=O)c1cc(O)c2cc(-c3ccc(OC)c(C45CC6CC(CC(C6)C4)C5)c3)ccc2c1C [Compound 18, 1-methyl-4-hydroxy-6-[3-(1-adamantyl)-4-methoxyphenyl]-2-naphthoic acid methyl ester] | lymphoma, liver
14 | COc1ccc(C(=O)Nc2ccc(C(=O)N3CCOCC3)cc2)cc1C12CC3CC(CC(C3)C1)C2 [Compound 19, N-{4-[N-(3-(1-adamantyl)-4-methoxybenzoyl)amido]benzoyl}morpholide] | kidney, myeloma, prostate, skin
